The values below come from patent publication US8097440B1, “Engineered microorganisms capable of producing target compounds under anaerobic conditions” (Gevo, Inc., priority 2008, dated 2012).

The assay deals with T1, E. coli KARI Ec_IlvC variant Ec_IlvC^6E6-his6 (A71S, R76D, S78D, Q110V), SEQ ID NO: 34 (Escherichia coli, UniProt P05793, A71S/Q110V/R76D/S78D).
T1 construct: T37 values cited for the gene on pGV1975
T1 sequence (P05793 with tags, fused parts or gaps A71S/R76D/S78D/Q110V): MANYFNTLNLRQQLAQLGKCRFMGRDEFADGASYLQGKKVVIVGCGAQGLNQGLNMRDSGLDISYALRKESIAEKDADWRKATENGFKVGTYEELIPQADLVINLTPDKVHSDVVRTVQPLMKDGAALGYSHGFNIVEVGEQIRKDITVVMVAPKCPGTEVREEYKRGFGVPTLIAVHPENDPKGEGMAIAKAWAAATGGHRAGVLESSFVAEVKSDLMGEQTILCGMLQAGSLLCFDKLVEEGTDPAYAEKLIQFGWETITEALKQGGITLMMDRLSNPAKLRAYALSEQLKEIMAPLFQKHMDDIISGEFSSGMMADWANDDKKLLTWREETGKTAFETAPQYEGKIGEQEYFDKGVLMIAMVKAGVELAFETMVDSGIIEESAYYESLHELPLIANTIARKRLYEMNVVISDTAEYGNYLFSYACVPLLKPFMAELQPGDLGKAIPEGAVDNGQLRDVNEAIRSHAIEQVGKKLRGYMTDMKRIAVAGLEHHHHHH
Put plainly: KARI assay, purified Ec_IlvC^6E6-his6. Type of assay: biochemical. As to the method:
KARI cuvette assay: KARI activity was assayed kinetically by monitoring the decrease in NAD(P)H concentration by measuring the absorbance at 340 nm. A reaction buffer was prepared containing 250 mM potassium phosphate pH 7, 1 mM DTT and 10 mM MgCl2. Cell pellets were resuspended (0.25 g wet weight/mL buffer) in 250 mM potassium phosphate (KPi) buffer containing 1 mM DTT and 10 mM MgCl2. The resuspended cells were lysed by sonication for 1 min with a 50% duty cycle and pelleted at 11000×g and 4° C. for 15 min. A reaction mixture consisting of 910 μl reaction buffer, 50 μl acetolactate, and 20 μl lysate was prepared in a cuvette. […]
Only 20% of the enzymes of the recombination library were active on NADH. After screening 1,000 clones using the NADH depletion assay at 340 nm, 26 KARI variants were selected for a rescreen by the high-throughput assay described in Example 14 and eight thereof were expressed in 25 ml LBamp medium in shake flasks according to the protocol for cell growth and protein expression in shake flasks as described in Example 14, purified according to the protocol for purification of KARI enzymes as described in Example 14, and NAD(P)H depletion at 340 nm was measured again. […] The KM values of variants Ec_llvC^2H10-his6 and Ec_llvC^6E6-his6 were measured and the catalytic efficiencies were calculated. […]

`NC(=O)C1=CN([C@@H]2O[C@H](COP(=O)(O)OP(=O)(O)OC[C@H]3O[C@@H](n4cnc5c(N)ncnc54)[C@H](O)[C@@H]3O)[C@@H](O)[C@H]2O)C=CC1` [NADH, nicotinamide adenine dinucleotide]: the kcat/KM (Example 15, expressed in E. coli BL21(DE3), purified) is recorded as 74,045 M^−1 * s^−1. Moreover, the “activity (in terms of kcat/KM) on NADH compared to wild-type activity on NADPH” value (best variant, relative to wild-type with NADPH) is reported as 85%.
